Test results taken from US20250122253A1, “REGULATING MICROTUBULE DYNAMICS AS A THERAPEUTIC TARGET FOR NERVE REPAIR” (City University of Hong Kong, priority 2023, published 2025).

Tests used:
[1] = system: SCG10-positive regenerating axons of sciatic nerve; test: Quantification of in vivo axon regeneration by SCG10 immunostaining (regeneration index); parameters: species or system mice; conditions: 3 days post-injury
Experimental: Mice were perfused transcardially with 4% PFA, and L4/5 DRGs and sciatic nerves were harvested, post-fixed, cryoprotected and frozen in OCT compound (Tissue-Tek). For regenerating axon quantification, 12-μm thick longitudinal serial sections of sciatic nerve were blocked with 0.5% BSA/0.1% Triton X-100 (Sigma-Aldrich), and incubated with anti-SCG10 (a marker for regenerating sensory axons; 1:5,000; Novus Biologicals) primary antibodies. The sections were then incubated with secondary antibody conjugated with Alexa Fluor 555 (1:300; Molecular Probes). A series of z-stack images were taken at 20× magnifications using Nikon AXR confocal microscope equipped with a motorized stage and a resonant scanner, stitched, and maximally projected using NIS-Elements software.
To quantify regenerating axons, the SCG10 fluorescence intensity was measured at different distal distances away from the crush site using a line scan macro in ImageJ (NIH). A fluorescence intensity profile of SCG10 immunoreactivity was plotted by averaging the SCG10 intensity from 100 neighbouring pixels and normalized to that measured in the crushed site with maximal SCG10 immunoreactivity. For each mouse, at least 3 non-overlapping sections (at least 36 μm apart) were used and averaged from 12-15 sections per genotype or treatment group (n=4-5 per genotype or treatment group).

pHDAC5 = test: Western blot of pHDAC5 in sciatic nerve segments 0-6 mm distal to the crush site; assay type: in vivo, mice; conditions: regenerating axons of sciatic nerves 3 days post-injury
Experimental: (§1) Ipsilateral L4/5 DRG neurons were harvested at various time points following sciatic nerve injury as indicated. Sciatic nerves were harvested 3 days after crush injury and segmented into 0-6 mm distal to the crush site. Each protein sample was pooled from 3 mice. DRG neurons and segmented sciatic nerves were mechanically dissociated with protein lysis buffer, and subjected to measurement of protein concentration using protein BCA assay (Pierce). Protein lysate (30 μg) was separated on 4-12% NuPAGE Tris-Glycine precast gel (Invitrogen). Protein was then transferred onto a PVDF membrane (Bio-Rad) and blocked with 5% non-fat milk (Bio-Rad) in TBS-T. The membrane was incubated with anti-FMN2 (1:500; ProteinTech), anti-phosphorylated HDAC5 (1:500, ThermoFisher), anti-HDAC5 (1:500, Novus Biologicals), anti-acetylated tubulin (1:10,000; Sigma-Aldrich), anti-NeuN (1:500; Millipore), anti-SOX10 (1:500; Abcam), anti-IBA-1 (1:1,000; Wako), anti-GFP (1:1,000; Cell Signaling), and anti-GAPDH antibodies (1:2,000; ProteinTech) as loading controls. The membrane was incubated with secondary antibody conjugated with horseradish peroxidase (1:2,000; Thermo-Fisher). Signals were detected using West Femto Maximum Sensitivity Substrate Kit (Thermo Scientific). […] Band intensities were measured using Image Lab software (Bio-Rad). […]

acetylated tubulin = test: Western blot of acetylated tubulin/total tubulin in sciatic nerve segments 0-6 mm distal to the crush site; assay type: in vivo, mice; conditions: regenerating axons of sciatic nerves 3 days post-injury
Experimental: as §1

axotomized DRG neurons = test: Neurite outgrowth assay in dissociated DRG cultures; assay type: cell-based, mice; conditions: increasing dose; neurite outgrowth increased almost linearly
Experimental: Primary cultures of dissociated DRG neurons were prepared from adult male C57BL/6 or Fmn2^−/− mice (8-12 weeks old) and their age-matched WT littermates as described. Briefly, DRGs were dissected out from the mice and mildly digested in collagenase/dispase II (Roche Diagnostics) solution, trypsinized and mechanically dissociated using flame polished Pasteur pipettes with three different diameters. DRG neurons were incubated in full NB medium.
For ex vivo DRG explant culture, non-overlapping quadrant images were taken from each DRG explant, and total neurite length was measured using automated WIS-NeuroMath software (Weizmann Institute of Science). Data were obtained from at least 3 separate experiments with n=8 explants per dose. […] Total neurite length and average longest neurite length were quantified using automated WIS-NeuroMath software (Weizmann Institute of Science). Data was obtained from 3 independent experiments repeated in duplicates. βIII-tubulin-positive DRG neurons with intact neurites adjacent to the neuronal cell bodies were counted as healthy neurons for neurite outgrowth assay.

gait movement = test: Sciatic functional index (SFI) walking track analysis; assay type: in vivo, mice; conditions: 15 days post-injury
Experimental: Adult male Fmn2^−/− mice (8-12 weeks old) and their age-matched WT littermates, or adult male C57BL/6 mice (for whole-body X-ray, AAV2/9-Fmn2-shRNA and metaxalone experiments) were trained and habituated one week before the sciatic nerve crush injury. After three independent training sessions (30 minutes per session with two days break), baseline values were taken, and sciatic nerve crush injury were performed one day after the baseline recordings. Function recovery was monitored for 30 days. On day 3 after the sciatic nerve crush, we first perform pinprick assay and followed by motor function assays every other day in a sequential manner (toe spreading, grip strength, and sciatic functional index) with 30 mins apart from each test. Animal behavioural tests were done blinded to the surgery and genotypes.
The walking track analysis was performed by training the mice to walk down a narrow corridor covered with white paper strip (10×60 cm) and the hindlimbs of the mice were pained with red water colour. […] The SFI values were calculated from footprints as follows: • […](experimental print length−naïve print length)/naïve print length+109.5×(experimental toe spread−naïve toe spread)/naïve toe spread+13.3×(experimental intermediary toe spread−naïve intermediary toe spread)/naïve intermediary toe spread−8.8. […]

[2] = cited from earlier work

**Q.** With `Cc1cc(C)cc(OCC2CNC(=O)O2)c1` (stereo not drawn) [metaxalone] as the molecule, how does the “regeneration index at the region over 4.5 mm, delayed treatment” value ([1]; treatment delayed by 24 hours) read?
**A.** Its value is 0.40.

**Q.** What about the “regeneration index at the region over 4.5 mm” value ([1]; treatment immediately after injury) of the same molecule?
**A.** Its value is 0.34.

**Q.** And the “number of SCG10-positive regenerating axons at 4.5 mm distal to the crush injury site” value ([1]; vs vehicle controls)?
**A.** The value was “significant increase”.

**Q.** What about the “protein expression of pHDAC5” value (pHDAC5) of the same molecule?
**A.** Its value is “substantial increase”.

**Q.** What about the tubulin acetylation (acetylated tubulin) of the same molecule?
**A.** The tubulin acetylation was “reduction of tubulin acetylation”.

**Q.** What about the “concentration at which neurite outgrowth reaches a plateau” value (axotomized DRG neurons) of the same molecule?
**A.** The value was 20 µM.

**Q.** What about the “increase of average SFI compared with SFI values at day 3 post-injury” value (gait movement; treated immediately) of the same molecule?
**A.** Its value is 73.0%.

**Q.** And the “increase of average SFI compared with SFI values at day 3 post-injury, delayed treatment” value (gait movement; treatment delayed by 24 hours)?
**A.** The value was 71.4%.

**Q.** What about the half-life [2] of the same molecule?
**A.** The half-life was 9 h.
